# Columns and labels:
# [1] = target: T1, cysteine-less RGS12 RGS-box protein (Homo sapiens, UniProt O14924, C701S/C748S/C775S/C831S); assay: Transcreener GDP RGScreen assay with cysteine-less RGS12 RGS-box; type: biochemical; settings: range given jointly for cysteine-less RGS14 and RGS12 proteins; read-out: estimated IC50, cysteine-less RGS12 RGS-box
# T1 construct: human RGS12 RGS-box (aa 695–843 of UniProt O14924); host or cells: E. coli
# T1 sequence (O14924 695-843 C701S/C748S/C775S/C831S): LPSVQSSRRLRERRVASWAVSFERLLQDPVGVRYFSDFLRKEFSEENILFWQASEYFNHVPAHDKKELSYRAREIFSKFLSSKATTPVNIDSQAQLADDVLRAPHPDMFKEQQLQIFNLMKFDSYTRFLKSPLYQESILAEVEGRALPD
# Source text: Given the earlier experience with screening hit CCG-4986 being a covalent modifier of RGS4 cysteine residues ([35]), we sought to exclude protein-thiol reactivity as a potential mechanism of action of the active compounds derived from the AtomNet virtual screening effort ([55]) and SAR campaign follow-ups. To address this possibility and screen out thiol-reactive hits, cysteine-lacking versions of recombinant proteins spanning the RGS-boxes of RGS14 and RGS12 were purified from E. coli cultures.
# Reagents and protocols for the fluorescence anisotropy-based Transcreener GDP RGScreen assay using a rate-altered, double point-mutant, recombinant Gαi1 protein have been extensively described previously ([43], [44]); reactions were always performed so that total GTP converted over the time course was consistently less than 10% of reaction maximum input. […] Open-reading frames (ORFs) encoding wild-type versions of the human RGS14 RGS-box (aa 46–195 of UniProt O43566) and human RGS12 RGS-box (aa 695–843 of UniProt O14924) were each sub-cloned in-frame with an N-terminal hexahistidine (His6) expression tag in the plasmid pET30a, expressed in E. coli cultures, and then purified by nickel-nitriloacetate (Ni-NTA) and size-exclusion (Superdex 200) column chromatographies by GenScript using previously described methods ([35]). […]
# [2] = target: T2, RGS14 RGS-box (GAP activity on wild-type Gαi1) (Homo sapiens, UniProt O43566); assay: Single-turnover [γ-33P]GTP hydrolysis assay of RGS-box GAP activity; type: biochemical; settings: wild-type Gαi1, concentration-dependent
# T2 sequence (O43566 67-184 limits assumed): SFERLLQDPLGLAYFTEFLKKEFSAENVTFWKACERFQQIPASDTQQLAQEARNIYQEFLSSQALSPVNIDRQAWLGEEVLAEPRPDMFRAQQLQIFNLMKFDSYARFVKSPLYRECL
# Source text: To further evaluate the functional activity of these triazolothiadiazine derivatives, and especially to eliminate concerns of misascribing GAP-inhibitory activity to potential assay interference, we tested two representative compounds—Z55660043 and Z55627844—in the gold-standard single-turnover radioactive GTP hydrolysis assay ([7], [58]) (Fig. 6).
# The single-turnover radiolabeled-GTP hydrolysis assay is the gold standard assay for RGS-box GAP activity, first described using [γ -^32P]GTP by Berman et al. ([7]) and recently modified for modern performance ([91], [92], [93], [94]) to use readily available [γ-^33P]GTP substrate and perchloric acid quenching. The assay was performed by first pre-loading wild-type (WT) Gα protein (i.e., 750 nM purified, recombinant, wild-type-sequence human Gαi1 protein) with a slight excess (1 μM) of [γ-^33P]GTP for 15 min at 30 °C. Assay initiation involved adding purified recombinant RGS protein previously pre-incubated for 30 min at 30 °C with a candidate inhibitor. […] Supernatant aliquots were then added to liquid scintillation fluid and [^33P]-Pi content (i.e., hydrolyzed GTP) was quantified with a scintillation counter with an appropriate β-transmission window.
compound,measurement,setting,value
"COc1ccc(OCc2nnc3n2N=C(c2ccc(OC)c(OC)c2)CS3)cc1 [Z55660043, 6-(3,4-dimethoxyphenyl)-3-[(4-methoxy-phenoxy)methyl]-5H-[1,2,4]triazolo[3,4-b][1,3,4]thiadiazine]",IC50,[1],10 to 19 µM
same,inhibition of RGS14 RGS-box-mediated acceleration of [γ-33P]GTP hydrolysis,[2],inhibit RGS14 RGS-box-mediated acceleration
